Assay results published in the NIST ThermoML archive (doi:10.1021/je060429r).
Values joined by “and” are separate entries in the source; they are usually repeats but may differ in a detail not shown here. Equal entries are not always repeated.

Settings: Transpiration method

Oc1c(Cl)cccc1Cl [2,6-dichlorophenol]
Settings | vapor or sublimation pressure [kPa]
298.5 K, Crystal | 0.0073
301.6 K, Crystal | 0.01
304.6 K, Crystal | 0.0137
307.4 K, Crystal | 0.0183
310.4 K, Crystal | 0.0245
313.4 K, Crystal | 0.0331
316.4 K, Crystal | 0.0437
319.4 K, Crystal | 0.0591
322.4 K, Crystal | 0.0774
325.4 K, Crystal | 0.1006
328.4 K, Crystal | 0.1312
331.3 K, Crystal | 0.1685
341.2 K, Liquid | 0.3444
344.7 K, Liquid | 0.4173
347.3 K, Liquid | 0.4838
350.3 K, Liquid | 0.5727
353.3 K, Liquid | 0.6745
356.3 K, Liquid | 0.7745
360.3 K, Liquid | 0.9734
363.3 K, Liquid | 1.143
366.3 K, Liquid | 1.315
371.4 K, Liquid | 1.664

Oc1ccc(Cl)cc1 [4-chlorophenol]
Settings | vapor or sublimation pressure [kPa]
283.2 K, Crystal | 0.00132
288.2 K, Crystal | 0.00236
291.2 K, Crystal | 0.00332
294.2 K, Crystal | 0.00459
297.2 K, Crystal | 0.00622
300.2 K, Crystal | 0.00839
303.2 K, Crystal | 0.01163
306.2 K, Crystal | 0.01571
309.2 K, Crystal | 0.02076
311.2 K, Crystal | 0.02535
313.2 K, Crystal | 0.03092
318.2 K, Liquid | 0.0485
321.2 K, Liquid | 0.0615
324.2 K, Liquid | 0.0754
327.2 K, Liquid | 0.0926
330.2 K, Liquid | 0.1141
333.2 K, Liquid | 0.1388
336.2 K, Liquid | 0.1699
339.2 K, Liquid | 0.2022
342.2 K, Liquid | 0.2534
345.2 K, Liquid | 0.3058
348.2 K, Liquid | 0.3684
351.2 K, Liquid | 0.4409

Oc1c(Cl)cc(Cl)cc1Cl [2,4,6-trichlorophenol]
Settings | vapor or sublimation pressure
299.4 K, Crystal | 0.00177 kPa
302.3 K, Crystal | 0.00245 kPa
305.2 K, Crystal | 0.00319 kPa
308.3 K, Crystal | 0.0044 kPa
311.3 K, Crystal | 0.00593 kPa
314.3 K, Crystal | 0.00805 kPa
316.8 K, Crystal | 0.01044 kPa and 0.01061 kPa
317.3 K, Crystal | 0.01125 kPa
320.3 K, Crystal | 0.015 kPa
323.3 K, Crystal | 0.02013 kPa
326.3 K, Crystal | 0.02645 kPa
329.4 K, Crystal | 0.03488 kPa
332.5 K, Crystal | 0.04531 kPa
335.5 K, Crystal | 0.05882 kPa
338.2 K, Crystal | 0.07513 kPa
340.3 K, Crystal | 0.08978 kPa
342.8 K, Liquid | 0.1027 kPa
343.2 K, Liquid | 0.1041 kPa
343.8 K, Liquid | 0.1081 kPa
345.2 K, Liquid | 0.1191 kPa
346.3 K, Liquid | 0.1271 kPa
347.3 K, Liquid | 0.1317 kPa
348.3 K, Liquid | 0.1419 kPa
348.9 K, Liquid | 0.1495 kPa
350.4 K, Liquid | 0.1613 kPa
351.4 K, Liquid | 0.1716 kPa
353.3 K, Liquid | 0.1898 kPa
353.9 K, Liquid | 0.1975 kPa
354.4 K, Liquid | 0.2102 kPa
356.4 K, Liquid | 0.2268 kPa
357.5 K, Liquid | 0.2519 kPa
359 K, Liquid | 0.2809 kPa
359.4 K, Liquid | 0.2784 kPa
360.5 K, Liquid | 0.2994 kPa
362.5 K, Liquid | 0.3322 kPa
363.2 K, Liquid | 0.3412 kPa
364.1 K, Liquid | 0.3663 kPa
365.5 K, Liquid | 0.3878 kPa
366.3 K, Liquid | 0.4095 kPa
368.1 K, Liquid | 0.4623 kPa
368.6 K, Liquid | 0.463 kPa
369.4 K, Liquid | 0.4939 kPa
372.4 K, Liquid | 0.5714 kPa
373.2 K, Liquid | 0.6103 kPa and 0.6087 kPa
375.4 K, Liquid | 0.6794 kPa

Oc1cccc(Cl)c1 [3-chlorophenol]
Settings | vapor or sublimation pressure [kPa]
275.3 K, Crystal | 0.00082
276.6 K, Crystal | 0.00095
278.3 K, Crystal | 0.00115
280.3 K, Crystal | 0.00149
283.2 K, Crystal | 0.00212
285.2 K, Crystal | 0.00262
288.3 K, Crystal | 0.00366
291.3 K, Crystal | 0.00509
294.3 K, Crystal | 0.00721
297.3 K, Crystal | 0.00999
300.3 K, Crystal | 0.01323
302.2 K, Crystal | 0.01626
306 K, Crystal | 0.02395
308.3 K, Liquid | 0.0294
311.1 K, Liquid | 0.0361
314.2 K, Liquid | 0.0455
317.2 K, Liquid | 0.058
320.3 K, Liquid | 0.073
323.2 K, Liquid | 0.0905
326.2 K, Liquid | 0.1116
329.2 K, Liquid | 0.1366
332.2 K, Liquid | 0.1669
335.2 K, Liquid | 0.2002
